Tests used:
[1] = target: T1, recombinant human caspase 3 (Homo sapiens, UniProt P42574); experiment: Caspase inhibition assay, standard fluorometric assay with Ac-DEVD-AMC; assay type: biochemical; details: Ki(app) = IC50/(1 + [S]/KM), [S] = 10 μM Ac-DEVD-AMC, 37° C., pH 7.5
T1 construct: Recombinant full-length human caspase-3 was purified as described previously [21b]; made in house
T1 sequence (P42574 29-175 limits assumed): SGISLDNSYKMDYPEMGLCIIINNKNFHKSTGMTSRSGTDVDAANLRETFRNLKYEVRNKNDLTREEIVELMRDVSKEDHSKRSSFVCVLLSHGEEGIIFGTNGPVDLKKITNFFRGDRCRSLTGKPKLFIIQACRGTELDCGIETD
T1 sequence (P42574 176-277 limits assumed): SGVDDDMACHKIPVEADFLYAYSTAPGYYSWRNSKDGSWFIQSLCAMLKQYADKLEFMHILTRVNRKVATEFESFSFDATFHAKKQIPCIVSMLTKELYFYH
Procedure: The inhibition of recombinant human caspase 3 by twentythree isatin sulfonamides (twenty
Recombinant full-length human caspase-3 was purified as described previously [21b]. […] Enzyme assays were performed in a 200 μl volume at 37° C. in reaction buffer containing 0.1% CHAPS, 50 mM KCl, 5 mM β-mercaptoethanol, 25 mM HEPES (pH 7.5) and nonradioactive isatins in DMSO each in single doses (end concentrations 500 μM, 50 μM, 5 μM, 500 nM, 50 nM, 5 nM, 500 pM, 50 pM or 5 pM). […] After 10 min incubation time Ac-DEVD-AMC (end concentration 10 μM) was added and reacted for further 10 min. […] The IC50-values were determined by non-linear regression analysis using the XMGRACE program (Linux software) and converted into the corresponding Ki-values by the equation Ki=IC50/(1+[S]/KM) assuming competitive inhibition by the isatin derivatives, where [S] is the concentration and KM is the Michaelis constant of substrate Ac-DEVD-AMC.

active caspase-3 = target: T2, active caspase-3 (Homo sapiens, UniProt P42574); experiment: Cellular caspase assay: growth factor withdrawal-induced apoptosis in HUVEC, Western blot; assay type: cell-based; details: 8 hours, at 10 μM (FIGS. 1 and 2)
T2 construct: endogenous in cells; host or cells: HUVEC
T2 sequence (P42574 29-175 limits assumed): T1 sequence (P42574 29-175 limits assumed)
T2 sequence (P42574 176-277 limits assumed): T1 sequence (P42574 176-277 limits assumed)
Procedure: In the context of cellular apoptosis assays concentration- and time-dependent kinetics of mentioned CbRs and CbR-transporter conjugates are performed to evaluate the pharmacological inhibition of apoptosis in viable apoptotic cells (e.g. growth factor withdrawal-induced, drug-induced, or ionizing radiation-induced apoptosis in endothelial cells).
HUVEC (Human umbilical vein endothelial cells) were cultivated on gelatine (2%)-coated dishes in RPMI-1640 containing 15% bovine calf serum, 1% Pen/Strep/Amph, 1% Heparin and 0.05 mg/ml bovine pituitary extract (BPE) at 37° C. in 5% CO2. Apoptosis was induced by growth factor withdrawal as previously described. For caspase inhibition experiments, cells were pre-incubated for 30 min with the compounds in the indicated concentrations. The medium was then removed and replaced with RPMI-1640 without serum or BPE, and the cells were incubated in the presence or absence of the various inhibitor concentrations for 8 hours. All cells were then harvested in lysis buffer, incubated for 10 min on ice, and cell debris was removed by centrifugation at 14000 rpm at 4° C. for 10 min. Protein concentration was determined by the Pierce protein assay, and 30 μg cell lysate were loaded on 15% SDS-Page gels and transferred to Immobilon PVDF membranes. Western blots were performed with antibodies to active caspase-3 (Cell Signaling) and developed using ECL (Amersham).
A quantitative (pharmacological) inhibition of before mentioned target caspases with the non-radioactive PET- or SPECT-compatible CbRs of presented invention needs macroscopic amounts of the inhibitor, i.e. concentrations of caspase inhibitor that are definitely more than necessarily needed for molecular imaging purposes.

[2] = Small-animal PET biodistribution after i.v. injection; assay type: in vivo, WT Mouse (Nu/Nu); details: mouse, 180 min p.i.
Procedure: PET was performed using a high-resolution dedicated small-animal PET system (32-module quadHIDAC; Oxford Positron Systems) which uses multiwire chamber detectors with submillimeter-resolution potency. For each data acquisition, up to two mice were placed on a heating pad to maintain a normal body temperature. The animals were anesthetised by inhalation of isoflurane (1.5%) and intravenously injected with approximately 7 MBq of each radiotracer in 100 μL isotonic as well as isohydric solution.
A small-animal PET scan was performed with the quadHIDAC device to trace the in vivo biodistribution behavior of the PET-compatible CbR (S)-1-(4-(2[<18>F]fluoroethoxy)benzyl)-5-[1-(2-methoxymethylpyrrolidinyl)-sulfonyl]isatin [<18>F]VI. Immediately after i.v. injection of [<18>F]VI (A=7MBq, pH=8, A5=48 GBq/[mu]mol, V=100 [mu]1 in sodium bicarbonate buffered saline solution) data acquisition was started. List-mode data were acquired for 180 min and subsequently reconstructed into an image volume of 90×90×120 mm<3>, voxel size 0.4×0.4×0.4 mm<3>, using an iterative reconstruction algorithm (OPL-EM). […] Mentioned hot spot remains even 6 h p.i. (data not shown).

melting point | Ki [1] [nM] | Compound | also measured
128 to 130 °C (dec.) | 0.7 | C[Si](C)(C)c1ccc(CN2C(=O)C(=O)c3cc(S(=O)(=O)N4CCC[C@H]4COc4ccccc4)ccc32)cc1 [1b, (S)-5-[1-(2-phenoxymethylpyrrolidinyl)sulfonyl]-1-(4-trimethylsilylbenzyl)-isatin] | 
 | 3 | O=C1C(=O)N(Cc2ccc(Br)cc2)c2ccc(S(=O)(=O)N3CCC[C@H]3COc3ccccc3)cc21 [1c, (S)-(+)-1-(4-bromobenzyl)-5-[1-(2-phenoxymethylpyrrolidinyl)sulfonyl]isatin] | 
143 to 144 °C | 2 | COC[C@@H]1CCCN1S(=O)(=O)c1ccc2c(c1)C(=O)C(=O)N2C [II, (S)-5-[1-(2-methoxymethylpyrrolidinyl)sulfonyl]-1-methyl-isatin] | inhibition of caspase progression (Western blot, active caspase-3) (active caspase-3): recognizable
 | 3 | O=C1C(=O)N(Cc2ccc(O)cc2)c2ccc(S(=O)(=O)N3CCC[C@H]3COc3ccccc3)cc21 [IIIa, (S)-1-(p-hydroxybenzyl)-5-[1-(2-phenoxymethylpyrrolidinyl)sulfonyl]isatin] | 
69 to 70 °C | 6.9 | O=C1C(=O)N(Cc2ccc(OCc3ccccc3)cc2)c2ccc(S(=O)(=O)N3CCC[C@H]3COc3ccccc3)cc21 [IIIaa, (S)-(+)-1-(4-benzyloxybenzyl)-5-[1-(2-phenoxymethylpyrrolidinyl)-sulfonyl]isatin] | 
 | 20 | CC(C)(C)[Si](C)(C)Oc1ccc(CN2C(=O)C(=O)c3cc(S(=O)(=O)N4CCC[C@H]4COc4ccccc4)ccc32)cc1 [IIIab, (S)-1-(p-tert-butyldimethylsilyloxybenzyl)-5-[1-(2-phenoxymethylpyrrolidinyl)sulfonyl]-isatin] | 
 | 77 | COC[C@@H]1CCCN1S(=O)(=O)c1ccc2c(c1)C(=O)C(=O)N2 [IIa, (S)-5-(1-[2-(methoxymethyl)pyrrolidinyl]-sulfonyl)isatin, reference compound] | 
 | 9 | COC[C@@H]1CCCN1S(=O)(=O)c1ccc2c(c1)C(=O)C(=O)N2Cc1ccc(OC)cc1 [IV, (S)-1-(4-methoxybenzyl)-5-[1-(2-methoxymethylpyrrolidinyl)sulfonyl]isatin] | inhibition of caspase progression (Western blot, active caspase-3) (active caspase-3): recognizable
 | 45 | COC[C@@H]1CCCN1S(=O)(=O)c1ccc2c(c1)C(=O)C(=O)N2Cc1ccc(O)cc1 [IVa, (S)-1-(p-hydroxybenzyl)-5-[1-(2-methoxymethylpyrrolidinyl)sulfonyl]isatin] | 
73 to 74 °C | 5 | COC[C@@H]1CCCN1S(=O)(=O)c1ccc2c(c1)C(=O)C(=O)N2Cc1ccc(OCc2ccccc2)cc1 [IVaa, (S)-(+)-1-(4-benzyloxybenzyl)-5-[1-(2-methoxymethylpyrrolidinyl)-sulfonyl]isatin] | 
 | 4 | COC[C@@H]1CCCN1S(=O)(=O)c1ccc2c(c1)C(=O)C(=O)N2Cc1ccc(O[Si](C)(C)C(C)(C)C)cc1 [IVab, (S)-1-(p-tert-butyldimethylsilyloxybenzyl)-5-[1-(2-methoxymethylpyrrolidinyl)sulfonyl]-isatin] | 
 | 0.4 | O=C1C(=O)N(Cc2ccc(OCCF)cc2)c2ccc(S(=O)(=O)N3CCC[C@H]3COc3ccccc3)cc21 [V, (S)-1-(4-(2-fluoroethoxy)benzyl)-5-[1-(2-phenoxymethylpyrrolidinyl)sulfonyl]isatin] | 
 | 36 | COC[C@@H]1CCCN1S(=O)(=O)c1ccc2c(c1)C(=O)C(=O)N2Cc1ccc(OCCF)cc1 [VI, (S)-1-(4-(2-fluoroethoxy)benzyl)-5-[1-(2-methoxymethylpyrrolidinyl)sulfonyl]isatin] | inhibition of caspase progression (Western blot, active caspase-3) (active caspase-3): recognizable
61 to 62 °C | 2 | COC[C@@H]1CCCN1S(=O)(=O)c1ccc2c(c1)C(=O)C(=O)N2Cc1ccc(OCCOS(=O)(=O)c2ccc(C)cc2)cc1 [VIa, (S)-1-(4-(2-(p-methylphenylsulfonyloxy)ethoxy)benzyl)-5-[1-(2-methoxymethylpyrrolidinyl)sulfonyl]isatin] | 
61 to 62 °C | 13 | COC[C@@H]1CCCN1S(=O)(=O)c1ccc2c(c1)C(=O)C(=O)N2Cc1ccc(OCCBr)cc1 [VIaa, (S)-1-(4-(2-bromoethoxy)benzyl)-5-[1-(2-methoxymethylpyrrolidinyl)-sulfonyl]isatin] | 
 | 17 | Cc1ccc(S(=O)(=O)OCCOc2ccc(CN3C(=O)C(=O)c4cc(S(=O)(=O)N5CCC[C@H]5COc5ccccc5)ccc43)cc2)cc1 [Va, (S)-1-(4-(2-(p-methylphenylsulfonyloxy)ethoxy)benzyl)-5-[1-(2-phenoxymethylpyrrolidinyl)sulfonyl]isatin] | 
162 to 163 °C | 25 | O=C1C(=O)N(Cc2ccc(OCCBr)cc2)c2ccc(S(=O)(=O)N3CCC[C@H]3COc3ccccc3)cc21 [Vaa, (S)-1-(4-(2-bromoethoxy)benzyl)-5-[1-(2-phenoxymethylpyrrolidinyl)sulfonyl]isatin] | 
 |  | COC[C@@H]1CCCN1S(=O)(=O)c1ccc2c(c1)C(=O)C(=O)N2Cc1ccc(OCC[18F])cc1 [[^18F]VI, (S)-1-(4-(2-[^18F]Fluoroethoxy)benzyl)-5-[1-(2-methoxymethylpyrrolidinyl)-sulfonyl]isatin] | clearance of radioactivity from peripheral organs (PET) ([2]; 7 MBq, all peripheral organs (FIG. 3)): cleared; remaining radioactivity (PET) ([2]; hot spot (putatively gall bladder) remains even 6 h p.i.): only remains in the bowels and in a hot spot nearby the liver
88 to 90 °C |  | O=C1C(=O)N(Cc2ccc(I)cc2)c2ccc(S(=O)(=O)N3CCC[C@H]3COc3ccccc3)cc21 [compound 1, (S)-1-(4-iodobenzyl)-5-[1-(2-phenoxymethylpyrrolidinyl)sulfonyl]isatin] | 
129 to 130 °C | 11 | COC[C@@H]1CCCN1S(=O)(=O)c1ccc2c(c1)C(=O)C(=O)N2Cc1ccc(I)cc1 [compound 2, (S)-1-(4-iodobenzyl)-5-[1-(2-methoxymethylpyrrolidinyl)sulfonyl]isatin] | inhibition of caspase progression (Western blot, active caspase-3) (active caspase-3): recognizable

Source: US8440841B2, “5-pyrrolidinylsulfonyl isatin derivatives” (Universitätsklinikum Münster, priority 2005, dated 2013)
